In PMC9697826 (Pharmaceuticals, 2022):

Compound Cc1nn(-c2ccccc2)c(=O)c(N)c1C(N)=O [Compound 16, 5-Amino-3-methyl-6-oxo-1-phenyl-1,6-dihydropyridazine-4-carboxylic acid amide] has a melting point of 247 to 249 °C.
Compound Nc1c(C(=O)Nc2ccccc2)c(-c2ccccc2)n[nH]c1=O [Compound 4a, 5-Amino-6-oxo-3-phenyl-1,6-dihydropyridazine-4-carboxylic acid phenylamide] has a melting point of 228 to 229 °C.
Compound Cn1nc(-c2ccccc2O)cc(N)c1=O [Compound 42a, 4-Amino-6-(2-hydroxyphenyl)-2-methylpyridazin-3(2H)-one] has a melting point of 212 to 213 °C.
For Cn1nc(-c2ccccn2)cc(N)c1=O [Compound 48, 4-Amino-2-methyl-6-pyridin-2-yl-pyridazin-3(2H)-one], the melting point was 294 to 295 °C.
In the case of NC(=O)Nc1cc(-c2ccccc2O)n[nH]c1=O [Compound 40, [6-(2-Hydroxy-phenyl)-3-oxo-2,3-dihydro-pyridazin-4-yl]-urea], the melting point is reported as over 300 °C.
Compound Nc1cc(C2CCCCC2)n[nH]c1=O [Compound 37b, 4-Amino-6-cyclohexylpyridazin-3(2H)-one] has a melting point of 284 to 287 °C.
For CC(C)C(=O)Nc1cc(-c2ccccc2)nn(C)c1=O [Compound 29c, N-(2-Methyl-3-oxo-6-phenyl-2,3-dihydro-pyridazin-4-yl)isobutyramide], the melting point was 146 to 148 °C.
With Nc1cc(-c2ccccc2)nn(C2CCCCC2)c1=O [Compound 24b, 4-Amino-2-cyclohexyl-6-phenylpyridazin-3(2H)-one] the melting point was 120 to 124 °C.
CC(C)c1cc(NC(N)=O)c(=O)n(C)n1 [Compound 39b, (6-Isopropyl-2-methyl-3-oxo-2,3-dihydropyridazin-4-yl)urea] gave a melting point of 248 to 251 °C.
For CCC(=O)Nc1cc(-c2ccccc2)nn(C)c1=O [Compound 29b, N-(2-Methyl-3-oxo-6-phenyl-2,3-dihydro-pyridazin-4-yl)propionamide], the melting point was 210 to 211 °C.
With Cn1nc(-c2ccccn2)cc(NC(N)=O)c1=O [Compound 49, (2-Methyl-3-oxo-6-pyridin-2-yl-2,3-dihydropyridazin-4-yl)-urea] the melting point was over 300 °C.
With CCCC(=O)Nc1cc(-c2ccccc2)nn(C)c1=O [Compound 29d, N-(2-Methyl-3-oxo-6-phenyl-2,3-dihydro-pyridazin-4-yl)butyramide] the melting point was 187 to 189 °C.
Work on CCCCn1nc(-c2ccccc2)cc(NC(N)=O)c1=O [Compound 25f, (2-Butyl-3-oxo-6-phenyl-2,3-dihydro-pyridazin-4-yl)urea] yielded a melting point of 265 to 267 °C.
CC(=O)c1cnn(-c2ccccc2)c(=O)c1N [Compound 18, 5-Acetyl-4-amino-2-phenylpyridazin-3(2H)-one] showed a melting point of 181 to 183 °C.
Work on Cc1nn(-c2ccccc2)c(=O)c(N)c1-c1ccn[nH]1 [Compound 57, 4-Amino-6-methyl-2-phenyl-5-(1H-pyrazol-5-yl)pyridazin-3(2H)-one] yielded a melting point of 119 to 121 °C.
In the case of Cc1nn(-c2ccccc2)c(=O)c(N)c1C#N [Compound 17, 5-Amino-3-methyl-6-oxo-1-phenyl-1,6-dihydropyridazine-4-carbonitrile], the melting point is reported as 201 to 203 °C.
In the case of NC(=O)c1c(-c2ccccc2)nn(C2CCCCC2)c(=O)c1N [Compound 21, 5-Amino-1-cyclohexyl-6-oxo-3-phenyl-1,6-dihydropyridazine-4-carboxylic acid amide], the melting point is reported as 125 to 128 °C.
With CCCCn1nc(-c2ccccc2)cc(N)c1=O [Compound 24f, 4-Amino-2-butyl-6-phenylpyridazin-3(2H)-one] the melting point was 67 to 69 °C.
With CC(C)n1nc(-c2ccccc2)cc(NC(N)=O)c1=O [Compound 25d, (2-Isopropyl-3-oxo-6-phenyl-2,3-dihydro-pyridazin-4-yl)urea] the melting point was 260 to 263 °C.
For NC(=O)Nc1cc(-c2ccccc2)nn(C2CCCCC2)c1=O [Compound 25b, (2-Cyclohexyl-3-oxo-6-phenyl-2,3-dihydro-pyridazin-4-yl)urea], the melting point was 261 to 263 °C.
For NC(=O)c1c(-c2ccccc2)n[nH]c(=O)c1N [Compound 6, 5-Amino-6-oxo-3-phenyl-1,6-dihydropyridazine-4-carboxylic acid amide], the melting point was over 300 °C.
In the case of CC(C)c1cc(N)c(=O)[nH]n1 [Compound 37c, 4-Amino-6-isopropylpyridazin-3(2H)-one], the melting point is reported as 246 to 248 °C.
With Cn1nc(-c2ccccc2)cc(C(N)=O)c1=O [Compound 51, 2-Methyl-3-oxo-6-phenyl-2,3-dihydropyridazine-4-carboxamide] the melting point was 215 to 217 °C.
Compound CCCn1nc(-c2ccccc2)cc(N)c1=O [Compound 24e, 4-Amino-6-phenyl-2-propylpyridazin-3(2H)-one] has a melting point of 79 to 81 °C.
CC(=O)Nc1ccc(-c2cc(N)c(=O)n(C)n2)cc1 [Compound 44, N-[4-(5-Amino-1-methyl-6-oxo-1,6-dihydropyridazin-3-yl)-phenyl]-acetamide] gave a melting point of 270 to 272 °C.
Cn1nc(-c2ccccc2)cc(Nc2ccccc2C(N)=O)c1=O [Compound 31b, 2-(2-Methyl-3-oxo-6-phenyl-2,3-dihydro-pyridazin-4-ylamino)benzamide] gave a melting point of 140 to 142 °C.
Compound Cn1nc(-c2ccccc2O)cc(NC(N)=O)c1=O [Compound 43, [6-(2-Hydroxyphenyl)-2-methyl-3-oxo-2,3-dihydropyridazin-4-yl]-urea] has a melting point of 278 to 280 °C.
Cn1nc(-c2ccsc2)cc(N)c1=O [Compound 38a, 4-Amino-2-methyl-6-thiophen-3-yl-pyridazin-3(2H)-one] gave a melting point of 178 to 179 °C.
Compound CCCNC(=O)c1c(-c2ccccc2)nn(CC)c(=O)c1N [Compound 5b, 5-Amino-1-ethyl-6-oxo-3-phenyl-1,6-dihydro-pyridazine-4-carboxylic acid propylamide] has a melting point of 141 to 143 °C.
Work on Nc1cc(-c2ccsc2)n[nH]c1=O [Compound 37a, 4-Amino-6-thiophen-3-yl-pyridazin-3(2H)-one] yielded a melting point of over 300 °C.
For Cn1nc(Cc2ccccc2)cc(N)c1=O [Compound 38d, 4-Amino-6-benzyl-2-methylpyridazin-3(2H)-one], the melting point was 104 to 108 °C.
Work on Cn1nc(-c2ccc(N)cc2)cc(N)c1=O [Compound 42b, 4-Amino-6-(4-aminophenyl)-2-methylpyridazin-3(2H)-one] yielded a melting point of 208 to 209 °C.
For Cn1nc(-c2ccccc2)cc(Nc2cccc(C(N)=O)c2)c1=O [Compound 31a, 3-(2-Methyl-3-oxo-6-phenyl-2,3-dihydro-pyridazin-4-ylamino)benzamide], the melting point was 214 to 216 °C.
In the case of CCn1nc(-c2ccccc2)c(C(=O)Nc2ccccc2)c(N)c1=O [Compound 5a, 5-Amino-1-ethyl-6-oxo-3-phenyl-1,6-dihydropyridazine-4-carboxylic acid phenylamide], the melting point is reported as 172 to 173 °C.
In the case of CC(C)n1nc(-c2ccccc2)cc(N)c1=O [Compound 24d, 4-Amino-2-isopropyl-6-phenylpyridazin-3(2H)-one], the melting point is reported as 122 to 124 °C.
For CC(=O)Nc1cc(-c2ccccc2)nn(C)c1=O [Compound 29a, N-(2-Methyl-3-oxo-6-phenyl-2,3-dihydro-pyridazin-4-yl)acetamide], the melting point was 211 to 212 °C.
Cn1nc(-c2ccccc2)cc(N)c1=S [Compound 32, 4-Amino-2-methyl-6-phenylpyridazine-3(2H)-thione] showed a melting point of 134 to 135 °C.
